Measurements: BindingDB's records for doi:10.7270/Q24T6GTZ (Burnham Center For Chemical Genomics, 2010)

Target: Kappa-type opioid receptor (Homo sapiens, UniProt P41145)
Experiment: kappa opioid receptor activation potency – imaging, image-based, SAR follow-up (AID 2359)

Chain of Kappa-type opioid receptor (P41145 whole entry): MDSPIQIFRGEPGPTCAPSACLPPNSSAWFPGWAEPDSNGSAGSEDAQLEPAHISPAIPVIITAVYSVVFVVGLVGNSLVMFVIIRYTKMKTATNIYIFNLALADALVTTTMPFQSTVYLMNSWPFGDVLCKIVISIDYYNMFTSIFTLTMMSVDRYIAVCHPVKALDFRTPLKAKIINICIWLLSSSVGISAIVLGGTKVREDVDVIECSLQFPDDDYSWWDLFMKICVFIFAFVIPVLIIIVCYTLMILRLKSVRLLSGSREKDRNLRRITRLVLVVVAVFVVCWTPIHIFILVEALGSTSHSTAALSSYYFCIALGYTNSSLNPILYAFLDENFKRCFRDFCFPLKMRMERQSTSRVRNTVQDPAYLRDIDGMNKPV

Row | EC50 | Compound
1 | > 32 µM | Oc1ccc(CN=Nc2ccnc3cc(Cl)ccc23)cc1O [(4Z)-4-[[2-(7-chloroquinolin-4-yl)hydrazinyl]methylidene]-2-hydroxycyclohexa-2,5-dien-1-one]
2 | > 32 µM | CCC(N=Nc1ccnc2cc(Cl)ccc12)c1ccc(O)cc1 (configuration not stated) [4-[1-[2-(7-chloroquinolin-4-yl)hydrazinyl]propylidene]cyclohexa-2,5-dien-1-one]
